Data set [1] deals with T1, Tyrosine-protein phosphatase non-receptor type 1 (Homo sapiens, UniProt P18031).
T1 sequence (P18031 whole entry): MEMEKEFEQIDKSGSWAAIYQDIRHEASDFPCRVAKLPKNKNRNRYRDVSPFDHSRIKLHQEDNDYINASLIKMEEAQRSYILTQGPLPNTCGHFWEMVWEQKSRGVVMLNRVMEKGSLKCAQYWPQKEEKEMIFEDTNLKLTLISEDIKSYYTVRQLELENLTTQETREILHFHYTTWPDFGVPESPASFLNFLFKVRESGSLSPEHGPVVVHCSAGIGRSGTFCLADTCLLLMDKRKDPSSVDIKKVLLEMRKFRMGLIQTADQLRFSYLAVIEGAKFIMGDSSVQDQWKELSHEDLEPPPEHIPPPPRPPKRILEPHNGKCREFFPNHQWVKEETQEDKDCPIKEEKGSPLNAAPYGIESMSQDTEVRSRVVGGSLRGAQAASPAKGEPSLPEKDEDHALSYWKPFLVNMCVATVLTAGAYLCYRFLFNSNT
The data set is described as follows: Inhibition of wild type N-terminal 6 his tagged human PTP1B (1 to 400 residues) expressed in Escherichia coli (Rosetta, DE3) using p-NPP as substrate preincubated for 10 mins followed by substrate addition and measured after 20 mins by absorbance based analysis.

Data set [2] deals with T2, Tyrosine-protein phosphatase non-receptor type 1 (Homo sapiens) (UniProt P18031).
T2 sequence (whole entry): T1 sequence (P18031 whole entry)
The experiment in a line: Binding affinity to wild type N-terminal 6 his tagged human PTP1B (1 to 400 residues) expressed in Escherichia coli (Rosetta, DE3) assessed as affinity constant by fluorescence based analysis.

Data set [3] can be described thus: Acute toxicity in Swiss Webster mouse assessed as animal death at 10 to 500 mg/kg, po and measured for 2 hrs. Format: organism-based. The note with it: in vivo, dose 10-500 mg/kg.
A short description of data set [4]: Acute toxicity in Swiss Webster mouse assessed as sedation at 10 to 500 mg/kg, po and measured for 2 hrs. Format: organism-based. The note with it: in vivo, dose 10-500 mg/kg.
The nature of data set [5]: Acute toxicity in Swiss Webster mouse assessed as loss of motor activity at 10 to 500 mg/kg, po and measured for 2 hrs. Format: organism-based. The settings on record: in vivo, dose 10-500 mg/kg.
A short description of data set [6]: Acute toxicity in Swiss Webster mouse assessed as hyperactivity at 10 to 500 mg/kg, po and measured for 2 hrs. Format: organism-based. The note with it: in vivo, dose 10-500 mg/kg.
The nature of data set [7]: Acute toxicity in Swiss Webster mouse assessed as ataxia at 10 to 500 mg/kg, po and measured for 2 hrs. The settings on record: in vivo, dose 10-500 mg/kg. Format: organism-based.
A short description of data set [8]: Acute toxicity in Swiss Webster mouse assessed as change in heart rate at 10 to 500 mg/kg, po and measured for 2 hrs. The settings on record: in vivo, dose 10-500 mg/kg. In kind it is organism-based.
The nature of data set [9]: Acute toxicity in Swiss Webster mouse assessed as animal death at 10 to 500 mg/kg, po and measured after 14 days. Format: organism-based. The note with it: in vivo, 336 h, dose 10-500 mg/kg, time 14 day.
Data set [10] can be described thus: Acute toxicity in Swiss Webster mouse assessed as effect on body weight loss at 10 to 500 mg/kg, po and measured after 14 days. Format: organism-based. The settings on record: in vivo, 336 h, dose 10-500 mg/kg, time 14 day.
Data set [11] can be described thus: Acute toxicity in Swiss Webster mouse assessed as macroscopic damage in internal organs at 10 to 500 mg/kg, po and measured after 14 days. In kind it is organism-based. The note with it: in vivo, 336 h, dose 10-500 mg/kg, time 14 day.
The nature of data set [12]: Acute toxicity in Swiss Webster mouse assessed as lethal dose. The settings on record: in vivo.
Data set [13] is described as follows: Acute toxicity in Swiss Webster mouse assessed as animal death at 30 to 300 mg/kg, po and measured for 2 hrs. In kind it is organism-based. The note with it: in vivo, dose 30-300 mg/kg.
Data set [14] is described as follows: Acute toxicity in Swiss Webster mouse assessed as sedation at 30 to 300 mg/kg, po and measured for 2 hrs. Format: organism-based. The settings on record: in vivo, dose 30-300 mg/kg.
Data set [15] is described as follows: Acute toxicity in Swiss Webster mouse assessed as loss of motor activity at 30 to 300 mg/kg, po and measured for 2 hrs. Format: organism-based. The note with it: in vivo, dose 30-300 mg/kg.
Data set [16] can be described thus: Acute toxicity in Swiss Webster mouse assessed as hyperactivity at 30 to 300 mg/kg, po and measured for 2 hrs. Format: organism-based. The settings on record: in vivo, dose 30-300 mg/kg.
Data set [17] can be described thus: Acute toxicity in Swiss Webster mouse assessed as ataxia at 30 to 300 mg/kg, po and measured for 2 hrs. Format: organism-based. The settings on record: in vivo, dose 30-300 mg/kg.
Data set [18] in a line: Acute toxicity in Swiss Webster mouse assessed as change in heart rate at 30 to 300 mg/kg, po and measured for 2 hrs. Format: organism-based. The note with it: in vivo, dose 30-300 mg/kg.
A short description of data set [19]: Acute toxicity in Swiss Webster mouse assessed as animal death at 30 to 300 mg/kg, po and measured after 14 days. In kind it is organism-based. The note with it: in vivo, 336 h, dose 30-300 mg/kg, time 14 day.
Data set [20] is described as follows: Acute toxicity in Swiss Webster mouse assessed as effect on body weight loss at 30 to 300 mg/kg, po and measured after 14 days. In kind it is organism-based. The settings on record: in vivo, 336 h, dose 30-300 mg/kg, time 14 day.
Data set [21] can be described thus: Acute toxicity in Swiss Webster mouse assessed as macroscopic damage in internal organs at 30 to 300 mg/kg, po and measured after 14 days. The settings on record: in vivo, 336 h, dose 30-300 mg/kg, time 14 day. Format: organism-based.
Data set [22] is filed under the species Mus musculus. The experiment in a line: Hypoglycemic activity in Swiss Webster mouse assessed as reduction in blood glucose level preincubated for 30 mins followed by insulin dose and measured at upto 120 mins by insulin tolerance test. Format: functional, organism-based. The settings on record: time <= 150.0 min.
Data set [23] relates to Mus musculus. The experiment in a line: Hypoglycemic activity in Swiss Webster mouse assessed as reduction in blood glucose level at 3 to 30 mg/kg preincubated for 30 mins followed by insulin dose and measured after 60 to 120 mins by insulin tolerance test. The settings on record: dose 3-30 mg/kg, time 90-150 min. Format: functional, organism-based.

The structures appear in SMILES notation. The source made the active and inactive calls. No cut-off for these calls is given here.

The values that follow come from ChEMBL document CHEMBL5375978, “Harnessing the Reactivity of Duclauxin toward Obtaining hPTP1B1-400 Inhibitors” (J Med Chem, 2023).

As to `CO[C@@]12c3c(C)cc(O)c4c(=O)occ(c34)C(=O)[C@@H]1[C@]13COC(=O)c4c(O)cc(C)c(c41)C(=O)[C@H]2[C@@H]3OC(C)=O`, the midpoint of inhibition in data set [1], the IC50, lay at 35.6 µM. The Ka in data set [2] is 2 10^5/M. The Activity entry in data set [3], in data set [4], in data set [5], in data set [6], in data set [7] and in data set [8] was “Non-Toxic” each time. Also, the Activity result in [9], in data set [10] and in data set [11] was “Non-Toxic” each time. Besides, the 50% lethal dose (LD50) (usually the dose at which mortality reaches 50%) in data set [12] is 500 mg/kg.

With `CC(=O)O[C@H]1[C@@H]2C(=O)c3c(C)cc(O)c4c3[C@@]1(COC4=O)C1=C2c2c(C)cc(O)c3c(=O)n(-c4ccc([N+](=O)[O-])cc4)cc(c23)C1=O`, the IC50 (commonly the concentration at which inhibition is half-maximal) in data set [1] is 3.1 µM. Besides, the Ka in [2] is 2.9 10^5/M. Moreover, the Activity result in data set [13], in [14], in [15], in [16], in data set [17] and in [18] was “Non-Toxic” each time. In addition, the Activity entry was “Non-Toxic” in [19], “Non-Toxic” in data set [20], “Non-Toxic” in data set [21] and “Dose-Dependent Effect” in the data set filed under Mus musculus [22]. Also, the LD50 in data set [12] turned out to be 300 mg/kg. For the same molecule, the result with Mus musculus [23] was Active.
